According to patent US20130324412A1, “N-ALKOXYAMIDES OF 6-(SUBSTITUTED PHENYL)-4-AMINOPICOLINATES AND 2-(SUBSTITUTED PHENYL)-6-AMINO-4-PYRIMIDINECARBOXYLATES AND THEIR USE AS SELECTIVE HERBICIDES FOR CROPS” (DOW AGROSCIENCES LLC, priority 2009, published 2013):

Assays:
Type in all cases: in vivo
corn (Zea mays) = test: General postemergence herbicidal activity, corn; details: post-emergence, 336 h, postemergence, after 14 d, 0 = no injury, 100 = complete kill, read-out: ZEAMX % Visual Injury; for plant injury at 70 g/ha: 70 g ai/ha; for plant injury at 140 g/ha: 140 g ai/ha; for plant injury at 35 g/ha: 35 g ai/ha; for plant injury at 280 g/ha: 280 g ai/ha
Protocol: (§1) Seeds or nutlets of the desired test plant species were planted in Sun Gro MetroMix® 360 planting mixture, which typically has a pH of 6.0 to 6.8 and an organic matter content of about 30 percent, in plastic pots with a surface area of 64 square centimeters (cm^2). When required to ensure good germination and healthy plants, a fungicide treatment and/or other chemical or physical treatment was applied. The plants were grown for 7-21 days (d) in a greenhouse with an approximate 15-hour (h) photoperiod which was maintained at about 23-29° C. during the day and 22-28° C. during the night. Nutrients and water were added on a regular basis and supplemental lighting was provided with overhead metal halide 1000-Watt lamps as necessary. The plants were employed for testing when they reached the first or second true leaf stage.
(§2) A weighed amount, determined by the highest rate to be tested, of each test compound was dissolved in 4 mL of a 97:3 volume per volume (v/v) mixture of acetone and dimethyl sulfoxide (DMSO) to obtain concentrated stock solutions. […] The concentrated stock solutions obtained were diluted with 20 mL of an aqueous mixture containing acetone, water, isopropyl alcohol, DMSO, Atplus 411F crop oil concentrate, and Triton X-155 surfactant in a 48.5:39:10:1.5:1.0:0.02 v/v ratio to obtain spray solutions containing the highest application rates. Additional application rates were obtained by serial dilution of 12 mL of the high rate solution into a solution containing 2 mL of 97:3 v/v mixture of acetone and DMSO and 10 mL of an aqueous mixture containing acetone, water, isopropyl alcohol, DMSO, Atplus 411F crop oil concentrate, and Triton X-155 surfactant in a 48.5:39:10:1.5:1.0:0.02 v/v ratio to obtain ½×, ¼×, ⅛× and 1/16× rates of the high rate. Compound requirements are based upon a 12 mL application volume at a rate of 187 liters per hectare (L/ha). Formulated compounds were applied to the plant material with an overhead Mandel track sprayer equipped with 8002E nozzles calibrated to deliver 187 L/ha over an application area of 0.503 square meters (m^2) at a spray height of 18 inches (43 cm) above the average plant canopy height. Control plants were sprayed in the same manner with the solvent blank.
(§3) The treated plants and control plants were placed in a greenhouse as described above and watered by sub-irrigation to prevent wash-off of the test compounds. After 14 d, the condition of the test plants as compared with that of the untreated plants was determined visually and scored on a scale of 0 to 100 percent where 0 corresponds to no injury and 100 corresponds to complete kill.

[1] = test system: velvetleaf (Abutilon theophrasti); test: General postemergence herbicidal activity, velvetleaf; details: post-emergence, 336 h, postemergence, after 14 d, 0 = no injury, 100 = complete kill, read-out: ABUTH % Visual Injury; for pest or weed control at 70 g/ha: 70 g ai/ha; for pest or weed control at 140 g/ha: 140 g ai/ha; for pest or weed control at 35 g/ha: 35 g ai/ha; for pest or weed control at 280 g/ha: 280 g ai/ha
Protocol: as §1, §2, §3

[2] = test system: lambsquarters (Chenopodium album); test: General postemergence herbicidal activity, lambsquarters; details: post-emergence, 336 h, postemergence, after 14 d, 0 = no injury, 100 = complete kill, read-out: CHEAL % Visual Injury; for pest or weed control at 70 g/ha: 70 g ai/ha; for pest or weed control at 140 g/ha: 140 g ai/ha; for pest or weed control at 35 g/ha: 35 g ai/ha; for pest or weed control at 280 g/ha: 280 g ai/ha
Protocol: as §1, §2, §3

[3] = test system: wild buckwheat (Polygonum convululus); test: General postemergence herbicidal activity, wild buckwheat; details: post-emergence, 336 h, postemergence, after 14 d, 0 = no injury, 100 = complete kill, read-out: POLCO % Visual Injury; for pest or weed control at 70 g/ha: 70 g ai/ha; for pest or weed control at 140 g/ha: 140 g ai/ha; for pest or weed control at 35 g/ha: 35 g ai/ha; for pest or weed control at 280 g/ha: 280 g ai/ha
Protocol: as §1, §2, §3

SMILES: COc1c(Cl)ccc(-c2cc(N)c(Cl)c(C(=O)NOc3ccccc3)n2)c1F [Compound 20, 4-Amino-3-chloro-6-(4-chloro-2-fluoro-3-methoxyphenyl)-N-phenoxypicolinamide]
- plant injury at 70 g/ha (corn (Zea mays)): 25%
- pest or weed control at 70 g/ha [1]: 100%
- pest or weed control at 70 g/ha [2]: 95%
- pest or weed control at 70 g/ha [3]: 100%

SMILES: COc1c(Cl)ccc(-c2cc(N)c(Cl)c(C(=O)NOC(C)(C)C)n2)c1F [Compound 21, 4-Amino-N-tert-butoxy-3-chloro-6-(4-chloro-2-fluoro-3-methoxyphenyl)picolinamide]
- plant injury at 140 g/ha (corn (Zea mays)): 0%
- pest or weed control at 140 g/ha [1]: 100%
- pest or weed control at 140 g/ha [2]: 95%
- pest or weed control at 140 g/ha [3]: 95%

SMILES: COc1c(Cl)ccc(-c2cc(N)c(Cl)c(C(=O)NOCc3ccc(F)cc3)n2)c1F [Compound 22, 4-Amino-3-chloro-6-(4-chloro-2-fluoro-3-methoxyphenyl)-N-(4-fluoro-benzyloxy)picolinamide]
- plant injury at 35 g/ha (corn (Zea mays)): 10%
- pest or weed control at 35 g/ha [1]: 100%
- pest or weed control at 35 g/ha [2]: 100%
- pest or weed control at 35 g/ha [3]: 100%

SMILES: COc1ccc(CONC(=O)c2nc(-c3ccc(Cl)c(OC)c3F)cc(N)c2Cl)cc1 [Compound 23, 4-Amino-3-chloro-6-(4-chloro-2-fluoro-3-methoxyphenyl)-N-(4-methoxy-benzyloxy)picolinamide]
- plant injury at 70 g/ha (corn (Zea mays)): 15%
- pest or weed control at 70 g/ha [1]: 100%
- pest or weed control at 70 g/ha [2]: 100%
- pest or weed control at 70 g/ha [3]: 100%

SMILES: COc1c(Cl)ccc(-c2cc(N)c(Cl)c(C(=O)N(C)O)n2)c1F [Compound 24, 4-Amino-3-chloro-6-(4-chloro-2-fluoro-3-methoxyphenyl)-N-hydroxy-N-methylpicolinamide]
- plant injury at 70 g/ha (corn (Zea mays)): 50%
- pest or weed control at 70 g/ha [1]: 90%
- pest or weed control at 70 g/ha [2]: 95%
- pest or weed control at 70 g/ha [3]: 80%

SMILES: C=CCONC(=O)c1nc(-c2ccc(Cl)c(OC)c2F)nc(N)c1Cl [Compound 25, N-(2-Propenyloxy)-6-amino-5-chloro-2-(4-chloro-2-fluoro-3-methoxyphenyl)pyrimidine-4-carboxamide]
- plant injury at 8.75 g/ha (corn (Zea mays); 8.75 g ai/ha): 60%
- pest or weed control at 8.75 g/ha ([1]; 8.75 g ai/ha): 90%
- pest or weed control at 8.75 g/ha ([2]; 8.75 g ai/ha): 100%
- pest or weed control at 8.75 g/ha ([3]; 8.75 g ai/ha): 100%

SMILES: C=CCON(C)C(=O)c1nc(-c2ccc(Cl)c(OC)c2F)cc(N)c1Cl [Compound 26, N-(2-Propenyloxy)-4-amino-3-chloro-6-(4-chloro-2-fluoro-3-methoxyphenyl)-N-methylpicolinamide]
- plant injury at 140 g/ha (corn (Zea mays)): 0%
- pest or weed control at 140 g/ha [1]: 95%
- pest or weed control at 140 g/ha [2]: 100%
- pest or weed control at 140 g/ha [3]: 95%

SMILES: C=CCONC(=O)c1nc(Cl)cc(N)c1Cl [Compound 27, N-(2-Propenyloxy)-4-amino-3,6-dichloropicolinamide]
- plant injury at 280 g/ha (corn (Zea mays)): 0%
- pest or weed control at 280 g/ha [1]: 35%
- pest or weed control at 280 g/ha [2]: 100%
- pest or weed control at 280 g/ha [3]: 100%

SMILES: C=C(Cl)CONC(=O)c1nc(-c2ccc(Cl)c(OC)c2F)cc(N)c1Cl [Compound 29, 4-Amino-3-chloro-6-(4-chloro-2-fluoro-3-methoxyphenyl)-N-(2-chloro-2-propenyl-oxy)picolinamide]
- plant injury at 35 g/ha (corn (Zea mays)): 50%
- pest or weed control at 35 g/ha [1]: 100%
- pest or weed control at 35 g/ha [2]: 100%
- pest or weed control at 35 g/ha [3]: 100%

SMILES: COc1c(Cl)ccc(-c2cc(N)c(Cl)c(C(=O)NOCC3CC3)n2)c1F [Compound 32, 4-Amino-3-chloro-6-(4-chloro-2-fluoro-3-methoxyphenyl)-N-(cyclopropyl-methoxy)picolinamide]
- plant injury at 35 g/ha (corn (Zea mays)): 10%
- pest or weed control at 35 g/ha [1]: 100%
- pest or weed control at 35 g/ha [2]: 100%
- pest or weed control at 35 g/ha [3]: 100%

SMILES: C=CC(C)ONC(=O)c1nc(-c2ccc(Cl)c(OC)c2F)cc(N)c1Cl (stereo not drawn) [Compound 33, 4-Amino-N-(but-3-en-2-yloxy)-3-chloro-6-(4-chloro-2-fluoro-3-methoxy-phenyl)picolinamide]
- plant injury at 70 g/ha (corn (Zea mays)): 10%
- pest or weed control at 70 g/ha [1]: 100%
- pest or weed control at 70 g/ha [2]: 100%
- pest or weed control at 70 g/ha [3]: 100%

SMILES: Nc1cc(Cl)nc(C(=O)NOCc2ccc(F)cc2)c1Cl [Compound 34, 4-Amino-3,6-dichloro-N-(4-fluorobenzyloxy)picolinamide]
- plant injury at 280 g/ha (corn (Zea mays)): 20%
- pest or weed control at 280 g/ha [1]: 65%
- pest or weed control at 280 g/ha [2]: 100%
- pest or weed control at 280 g/ha [3]: 100%

SMILES: C=CCONC(=O)c1nc(-c2ccc(Cl)c(OC)c2F)nc(N)c1OC [Compound 35, N-(2-Propenyloxy)-6-amino-2-(4-chloro-2-fluoro-3-methoxyphenyl)-5-methoxypyrimidine-4-carboxamide]
- plant injury at 140 g/ha (corn (Zea mays)): 20%
- pest or weed control at 140 g/ha [1]: 100%
- pest or weed control at 140 g/ha [2]: 100%
- pest or weed control at 140 g/ha [3]: 90%

SMILES: C=C(F)CONC(=O)c1nc(-c2ccc(Cl)c(OC)c2F)cc(N)c1Cl [Compound 37, 4-Amino-3-chloro-6-(4-chloro-2-fluoro-3-methoxyphenyl)-N-(2-fluoro-2-propenyl-oxy)picolinamide]
- plant injury at 17.5 g/ha (corn (Zea mays); 17.5 g ai/ha): 25%
- pest or weed control at 17.5 g/ha ([1]; 17.5 g ai/ha): 100%
- pest or weed control at 17.5 g/ha ([2]; 17.5 g ai/ha): 100%
- pest or weed control at 17.5 g/ha ([3]; 17.5 g ai/ha): 100%

SMILES: C=CCCONC(=O)c1nc(-c2ccc(Cl)c(OC)c2F)cc(N)c1Cl [Compound 38, 4-Amino-N-(3-butenyloxy)-3-chloro-6-(4-chloro-2-fluoro-3-methoxyphenyl)picolinamide]
- plant injury at 35 g/ha (corn (Zea mays)): 35%
- pest or weed control at 35 g/ha [1]: 100%
- pest or weed control at 35 g/ha [2]: 100%
- pest or weed control at 35 g/ha [3]: 100%
